Experimental data from PMC8650031, “Santin and cirsimaritin from Betula pubescens and Betula pendula buds induce apoptosis in human digestive system cancer cells” (Journal of Cellular and Molecular Medicine, 2021).

Columns and labels:
[1] = test system: normal human skin fibroblasts (CCD25Sk); test: MTT cell viability assay, normal fibroblasts; assay type: cell-based; settings: Skin fibroblast
Description: (§1) Viability of cells was determined using the MTT assay. Cells were plated in 96‐well plates at 1 × 10^4 cells per well and allowed to adhere for 24 h. […] MTT (3‐(4,5‐Dimethyl‐2‐thiazolyl)‐2,5‐diphenyl‐2H‐tetrazolium bromide, Sigma‐Aldrich, USA) solution was added to each well, and cells were incubated at 37°C for 4 h. The medium was then removed, and formazan crystals were dissolved in 100 μL of DMSO and 12.5 μL of Sorensen's glycine buffer on a plate shaker. Absorbance was measured at 570 nm using a microplate reader. IC50 values were calculated using GraphPad Prism software.

DLD‐1 cells [2] = test: [3H]-thymidine incorporation (DNA biosynthesis), DLD-1; assay type: cell-based, human; settings: DLD-1, 50 μM, 48 h
Description: (§2) Cells were plated in 24‐well plates at 4 × 10^4 cells per well and allowed to adhere for 24 h. Cells were treated with the various concentrations of flavonoids (25, 50 and 100 μM) in 1 mL medium containing 0.5 μCi [^3H]‐thymidine (#MT6037, Hartmann Analytic, Germany) for 48 h. Medium was discarded, and cells were rinsed three times with phosphate buffered saline (PBS), and solubilized with 1 mL of 0.1 M sodium hydroxide containing 1% sodium dodecyl sulphate. Then, 9 mL of scintillation liquid (PerkinElmer, USA) was added, and radioactivity incorporated into DNA was measured using a scintillation counter.

p53 in HepG2 cells = test: p53 expression by Western blot and fluorescence microscopy, HepG2; assay type: cell-based, human; settings: HepG2, 48 h treatment
Description: (§3) Cells were seeded at a density of 1 × 10^5 cells per well in 6-well plates and allowed to adhere for 24 h. Cells were treated with various concentrations of flavonoids (12.5, 25, 50 and 100 […]
(§4) Adherent and floating cells were harvested and sonicated. Obtained homogenates were supplemented with 1% protease and phosphatase inhibitor cocktail (#78440, Thermo Fisher Scientific, USA). A Lowry assay was performed to quantify protein content in the homogenates. Proteins (20–40 μg) were resolved on 7.5%, 10% or 12% SDS-PAGE gels using the Mini-Protean Tetra system (Bio-Rad, USA). Proteins were transferred to nitrocellulose membranes (Bio-Rad, USA) using the Mini Trans-Blot Cell wet blotting system (Bio-Rad, USA). Membranes were blocked with 5% skim milk for 1 hour at room temperature and probed overnight at 4 °C with primary antibodies. The following antibodies […]
(§5) 1:1000), purchased from Cell Signaling Technology (USA); anti-p53 antibody (#sc-126, […]
(§6) 1:500) obtained from Santa Cruz Biotechnology (USA); and anti-actin antibody (#A2066, 1:2000) purchased from Sigma-Aldrich (USA). After extensive washes, a secondary antibody solution in 5% skim milk (anti-mouse IgG-HRP, Sigma-Aldrich, #A9044, 1:5000; anti-rabbit IgG-HRP, Sigma-Aldrich, #A9169, 1:5000) was added for 1 h at room temperature.
(§7) Membranes were incubated with ECL-HRP substrate (GE Healthcare, USA) and the signal was detected using the BioSpectrum Imaging System (Ultra-Violet Products, Ltd., UK).
(§8) 2.8. Immunofluorescence microscopy
(§9) Cells were plated in 96-well plates at 1 × 10^4 cells per well and allowed to adhere for 24 h.
(§10) Cells were treated with the respective concentration of flavonoids and incubated for 48 h. […]
(§11) The mass spectrometric detector was calibrated by analyzing flavonoid solutions in the concentration range 0.06‒2.0 mg/ml in the mode of selective monitoring of the most intense ions (M+ ‒ CH3) in the spectra of TMS derivatives of the determined components (Table S1).

DLD‐1 cells [3] = test: Annexin V/propidium iodide apoptosis assay, DLD-1; assay type: cell-based, human; settings: 48 h
Description: (§12) Cells were seeded at a density of 1 × 10^5 cells per well in 6-well plates and allowed to adhere for 24 h. Cells were treated with various concentrations of flavonoids (12.5, 25, 50 and 100 μM) for 48 h. Floating and adherent cells were collected and assayed using a Dead Cell Apoptosis Kit with annexin V-fluorescein isothiocyanate (FITC) and propidium iodide (PI), for flow cytometry (#V13242, Thermo Fisher Scientific, USA), according to the manufacturer’s protocol. Briefly, cells were dispersed in 100 μL annexin-binding buffer containing 5 μL annexin V-FITC conjugate solution, 1 μg/mL PI and 1 μg/mL Hoechst 33342, and incubated for 15 min at room temperature. Then 400 μL of annexin-binding buffer was added, and the cell suspension was transferred to 96-well plates and visualised using fluorescence microscopy on a BD Pathway 855 system (Becton Dickinson, USA). Early […]
(§13) red and blue fluorescence. […]

HepG2 cells [4] = test: Annexin V/propidium iodide apoptosis assay, HepG2; assay type: cell-based, human; settings: 48 h
Description: as §12, §13

HepG2 cells [5] = test: [3H]-thymidine incorporation (DNA biosynthesis), HepG2; assay type: cell-based, human; settings: HepG2, 50 μM, 48 h
Description: as §2

p53 in DLD‐1 cells = test: p53 expression by Western blot and fluorescence microscopy, DLD-1; assay type: cell-based, human; settings: DLD-1, 48 h treatment
Description: as §3, §4, §5, §6, §7, §8, §9, §10, §11

AGS cells [6] = test: [3H]-thymidine incorporation (DNA biosynthesis), AGS; assay type: cell-based, human; settings: 50 μM, 48 h
Description: as §2

[7] = test system: gastric adenocarcinoma AGS cells; test: MTT cell viability assay, AGS cells; assay type: cell-based, human; settings: for IC50: Homo sapiens, MTT; for reduction in viability: 100 μM
Description: as §1

AGS cells [8] = test: Colony formation assay, AGS; assay type: cell-based, human; settings: 48 h treatment then 7 days culture; for decrease in number of colonies: 12.5 μM
Description: (§14) 2.5. Colony formation assay
(§15) In total, 250 cells were plated in each well of 12-well plates and allowed to adhere for 24 h.
(§16) Cells were treated with various concentrations of flavonoids (3.125, 6.25, 12.5, 25, 50 and 100 μM) for 48 h. Medium was discarded and fresh medium was added. After seven days, culture medium was removed and cells were washed once with PBS. Then, cells were fixed with 4% formaldehyde and stained with 0.1% crystal violet. […]

[9] = test system: colorectal adenocarcinoma DLD‐1 cells; test: MTT cell viability assay, DLD-1 cells; assay type: cell-based, human; settings: for IC50: Homo sapiens, MTT; for reduction in viability: DLD-1, 100 μM
Description: as §1

DLD‐1 cells [10] = test: Colony formation assay, DLD-1; assay type: cell-based, human; settings: 48 h treatment then 7 days culture
Description: as §14, §15, §16

p53 in AGS cells = test: p53 expression by Western blot and fluorescence microscopy, AGS; assay type: cell-based, human; settings: 48 h treatment
Description: as §3, §4, §5, §6, §7, §8, §9, §10, §11

HepG2 cells [11] = test: Colony formation assay, HepG2; assay type: cell-based, human; settings: 48 h treatment then 7 days culture
Description: as §14, §15, §16

[12] = test system: hepatocellular carcinoma HepG2 cells; test: MTT cell viability assay, HepG2 cells; assay type: cell-based, human; settings: for IC50: Homo sapiens, MTT; for reduction in viability: HepG2, 100 μM
Description: as §1

AGS cells [13] = test: Annexin V/propidium iodide apoptosis assay, AGS; assay type: cell-based, human; settings: 48 h
Description: as §12, §13

| SMILES | IC50 ([1]; 24 h) [µM] | IC50 ([1]; 48 h) [µM] | IC50 ([1]; 72 h) [µM] | reduction of [3H]-thymidine incorporation (DLD‐1 cells [2]) [%] | p53 level (p53 in HepG2 cells) | reduction of [3H]-thymidine incorporation (HepG2 cells [5]) [%] | p53 level (p53 in DLD‐1 cells) | reduction of [3H]-thymidine incorporation (AGS cells [6]) [%] | IC50 ([7]; 48 h) [µM] | IC50 ([7]; 72 h) [µM] | IC50 ([9]; DLD-1, 48 h) [µM] | p53 level (p53 in AGS cells) | further results |
| --- | --- | --- | --- | --- | --- | --- | --- | --- | --- | --- | --- | --- | --- |
| O=c1cc(-c2ccc(O)cc2)oc2cc(O)cc(O)c12 [apigenin, reference compound] | > 50 | > 50 | > 50 | 17.7 | up‐regulated | 85.4 | up‐regulated | 56.2 | 18.2 ± 1.3 | 23.4 ± 1.4 | 43.6 ± 2 | up‐regulated | percentage of cells in the early stage of apoptosis (DLD‐1 cells [3]; DLD-1, 50 μM): 29.7%; percentage of cells in the late stage of apoptosis (DLD‐1 cells [3]; DLD-1, 50 μM): 9.4%; percentage of cells in the early stage of apoptosis (HepG2 cells [4]; HepG2, 50 μM): 20.5%; percentage of cells in the late stage of apoptosis (HepG2 cells [4]; HepG2, 50 μM): 12.3%; IC50 ([7]; 24 h): > 50 µM; decrease in number of colonies (AGS cells [8]): 13.2%; IC50 ([9]; DLD-1, 24 h): > 50 µM; IC50 ([9]; DLD-1, 72 h): > 50 µM; decrease in number of colonies (DLD‐1 cells [10]; DLD-1, 12.5 μM): 23.5%; decrease in number of colonies (HepG2 cells [11]; HepG2, 12.5 μM): 61.8%; IC50 ([12]; HepG2, 24 h): > 50 µM; IC50 ([12]; HepG2, 48 h): > 50 µM; IC50 ([12]; HepG2, 72 h): 37.9 ± 2.9 µM; percentage of cells in the early stage of apoptosis (AGS cells [13]; 50 μM): 71.2%; percentage of cells in the late stage of apoptosis (AGS cells [13]; 50 μM): 9.6% |
| COc1ccc(-c2cc(=O)c3c(O)cc(OC)cc3o2)cc1 [apigenin−7,4'‐O‐dimethyl ether, apigenin 7,4'‐O‐dimethyl ether] | 23.6 ± 2.2 | 12.9 ± 0.5 | 19.7 ± 1.3 | – | – | – | – | – | – | – | – | – | – |
| COc1cc2oc(-c3ccc(O)cc3)cc(=O)c2c(O)c1OC [cirsimaritin] | > 50 | > 50 | > 50 | 10.0 | increased significantly | 53.6 | decreased | 24.5 | 31.7 ± 2.4 | 17.1 ± 1.4 | – | increased significantly | percentage of cells in the early stage of apoptosis (DLD‐1 cells [3]; DLD-1, 50 μM): 51.5%; percentage of cells in the late stage of apoptosis (DLD‐1 cells [3]; DLD-1, 50 μM): 15.5%; percentage of cells in the early stage of apoptosis (HepG2 cells [4]; HepG2, 50 μM): 51.2%; percentage of cells in the late stage of apoptosis (HepG2 cells [4]; HepG2, 50 μM): 5.4%; decrease in number of colonies (AGS cells [8]): 75.7%; percentage of cells in the early stage of apoptosis (AGS cells [13]; 50 μM): 37.0%; percentage of cells in the late stage of apoptosis (AGS cells [13]; 50 μM): 7.4% |
| COc1ccc(-c2oc3cc(O)cc(O)c3c(=O)c2OC)cc1 [ermanin] | – | – | – | 29.1 | – | 85.2 | – | 28.2 | 49.3 ± 3.3 | 44.5 ± 3.1 | 49.3 ± 2.5 | – | reduction in viability ([7]; 48 h): over 80%; reduction in viability ([7]; 72 h): over 80%; reduction in viability ([9]; 48 h): over 80%; reduction in viability ([9]; 72 h): over 80%; reduction in viability ([12]; 48 h): over 80%; reduction in viability ([12]; 72 h): over 80% |
| COc1cc(O)c2c(=O)c(OC)c(-c3ccc(O)cc3)oc2c1 [kumatakenin] | – | – | 41.6 ± 3.5 | – | – | – | – | – | – | – | – | – | – |
| O=c1c(O)c(-c2ccc(O)c(O)c2)oc2cc(O)cc(O)c12 [quercetin] | – | – | – | – | – | – | – | – | – | 28.4 ± 2.5 | – | – | – |
| COc1ccc(-c2oc3cc(O)c(OC)c(O)c3c(=O)c2OC)cc1 [santin] | > 50 | > 50 | > 50 | 35.0 | increased significantly | 74.9 | decreased | 48.0 | 17.1 ± 0.8 | 13.9 ± 1.2 | 28 ± 1.3 | increased significantly | percentage of cells in the early stage of apoptosis (DLD‐1 cells [3]; DLD-1, 12.5 μM): 54.8%; percentage of cells in the late stage of apoptosis (DLD‐1 cells [3]; DLD-1, 12.5 μM): 6.7%; percentage of cells in the early stage of apoptosis (HepG2 cells [4]; HepG2, 12.5 μM): 36.6%; percentage of cells in the late stage of apoptosis (HepG2 cells [4]; HepG2, 12.5 μM): 16.1%; IC50 ([7]; 24 h): > 50 µM; decrease in colony numbers (AGS cells [8]; 3.125 μM): 77.4%; IC50 ([9]; DLD-1, 24 h): > 50 µM; IC50 ([9]; DLD-1, 72 h): 36.5 ± 2.5 µM; decrease in number of colonies (DLD‐1 cells [10]; DLD-1, 6.25 μM): 60%; decrease in colony numbers (HepG2 cells [11]; HepG2, 3.125 μM): 65.8%; IC50 ([12]; HepG2, 24 h): > 50 µM; IC50 ([12]; HepG2, 48 h): 19.8 ± 0.9 µM; IC50 ([12]; HepG2, 72 h): 22.7 ± 1.6 µM; percentage of cells in the early stage of apoptosis (AGS cells [13]; 12.5 μM): 65.8%; percentage of cells in the late stage of apoptosis (AGS cells [13]; 12.5 μM): 7.6% |
